Experimental findings from patent publication US5795899A, “Soluble salts of 4-amino-2-(4,4-dimethylimidazolidin-2-on-1-yl) pyrimidine-5-carboxylic acid N-methyl-N-(3-trifluoromethylphenyl)-amide, a process for the preparation thereof, the use thereof as pharmaceuticals and starting materials” (Hoechst Aktiengesellschaft, priority 1992, dated 1998) are described below.

Series [1] concerns LDL receptor. Put plainly: Uptake of 125I-labeled homologous LDL / functional LDL receptor levels on HepG2 cells. It is filed as cell-based, human. Conditions: FIG. 3. How it is done:
In this test, homologous LDL which had been purified by standard processes was labeled with ^125 I by the iodine monochloride method. Used in this case was the method of Bilheimer which is disclosed in the literature and is a modification of the iodination technique originally developed by McFarlaine (compare Bilheimer, D. W., Eisenberg, S., and Levy, R. L., Biochim. Biophys. Acta, 260, 212 (1972)).
To determine the ^125 I-LDL incorporation, HepG2 cells were preincubated with and without hydrochloride of the compound I for 36 hours and subsequently incubated with iodine-labeled LDL at 37° C. in an incubator for 3 hours.
Subsequently, the cells were washed in the presence of 2% bovine serum albumin, the cells were lyzed with 1 ml of 0.1N NaOH, and the incorporated radioactivity was measured. The specific radioactivity uptake (total radioactivity uptake less the unspecific radioactivity uptake) per mg of protein was then calculated, as generally customary, via a protein determination by the Lowry method, and the radioactivity taken up by the control […] was set equal to 100%.

The test system of series [2] is tumor cells (L 1210, A 549, HT 29). Put plainly: Cell proliferation inhibition (MTT assay), overall statement. It is filed as cell-based, mouse and human. How it is done:
The reduced inhibitory effect on cell proliferation was tested on exponentially growing animal (mouse leukemia cells, L 1210) and human (bronchial carcinoma cells, A 549; colon carcinoma cells, HT 29) tumor cells. This entailed the tumor cells being incubated in RPMI standard medium with various concentrations of the test substances for 72 hours. Cell incubations only in fresh medium served as control. Incubations were set up in quadruplet. […] After incubation for a further 7 to 24 hours, the cell supernatant was carefully removed and the formazan dye in the cells was solubilized by adding DMSO and measured quantitatively by photometry at 492 nm. The ratio of the extinction of the substance incubations to the control incubation was quantified. The coefficient of variation in each incubation series was less than 15%. The following Table 6 indicates the IC50 values (IC50 [μg/ml] is the concentration of the test substance per ml which is necessary for 50% inhibition) from these investigations.

Series [3] has as its target T1, HMG-CoA reductase (Rattus norvegicus, UniProt P51639).
T1 construct: partially purified HMG-COA reductase from rat liver; from tissue; host or cells: rat liver (partially purified enzyme)
T1 sequence (P51639 1-887): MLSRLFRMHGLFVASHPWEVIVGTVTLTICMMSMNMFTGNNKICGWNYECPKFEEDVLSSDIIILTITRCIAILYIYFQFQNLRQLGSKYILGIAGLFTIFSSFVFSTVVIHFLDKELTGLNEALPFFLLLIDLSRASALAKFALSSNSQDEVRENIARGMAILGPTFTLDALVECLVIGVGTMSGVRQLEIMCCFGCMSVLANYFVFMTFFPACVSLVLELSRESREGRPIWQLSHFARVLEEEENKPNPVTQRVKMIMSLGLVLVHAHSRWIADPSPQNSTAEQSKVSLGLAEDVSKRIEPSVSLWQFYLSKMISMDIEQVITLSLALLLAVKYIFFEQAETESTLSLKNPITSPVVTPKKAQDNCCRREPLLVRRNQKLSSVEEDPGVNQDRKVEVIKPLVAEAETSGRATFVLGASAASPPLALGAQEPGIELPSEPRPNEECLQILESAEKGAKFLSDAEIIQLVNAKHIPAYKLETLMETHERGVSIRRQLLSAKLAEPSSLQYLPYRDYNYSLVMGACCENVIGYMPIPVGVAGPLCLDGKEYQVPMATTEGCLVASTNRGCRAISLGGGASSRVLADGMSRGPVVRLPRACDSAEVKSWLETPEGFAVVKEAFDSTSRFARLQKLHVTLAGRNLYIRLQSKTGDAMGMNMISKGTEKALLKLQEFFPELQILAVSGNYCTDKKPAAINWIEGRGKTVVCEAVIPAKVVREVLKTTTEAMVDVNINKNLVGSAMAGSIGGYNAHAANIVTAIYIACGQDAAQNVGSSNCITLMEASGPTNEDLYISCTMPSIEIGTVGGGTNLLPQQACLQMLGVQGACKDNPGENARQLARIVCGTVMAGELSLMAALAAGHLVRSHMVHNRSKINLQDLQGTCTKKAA
Put plainly: HMG-CoA reductase determination in vitro on partially purified HMG-CoA reductase from rat liver. The series is classed as biochemical. Conditions: 10^-5 M; variation 10%.

Turning to `CN(C(=O)c1cnc(N2CC(C)(C)NC2=O)nc1N)c1cccc(C(F)(F)F)c1.Cl` [Compound I as hydrochloride, 4-amino-2-(4,4-dimethyl-2-oxo-1-imidazolidinyl)pyrimidine-5-carboxylic acid N-methyl-N-(3-trifluoromethylphenyl)amide hydrochloride], the “Functional LDL receptor levels on HepG2 cells” value in series [1] is given as “corresponding increase”. In addition, in series [1] (HepG2, preincubation 36 hours, then 125I-LDL at 37° C. 3 hours), the “Increase in uptake of 125I-labeled homologous LDL” value is “increased by up to two and a half times”. For the same molecule, the “Proliferation inhibition compared with imanixil (HOE 402) / its hydrochloride (in words)” value in series [2] is on record as “must be given at a considerably higher dose in order to have the same proliferation-inhibiting effect”. Besides, the “Influence on HMG-CoA reductase enzyme activity compared with control incubations” value in series [3] is “does not influence”.
